According to patent publication US20070197446A1, “MHC binding peptides and their uses” (ProImmune Limited, priority 2006, published 2007):

What was measured:
Type in all cases: binding
[1] = biological target: HLA-B*3501 (Homo sapiens, UniProt P01889, A329T/A93T/A95T/C349S/D201E/D98Y/E176V/E187L/E204Q/E69T/I218V/K202T/L119I/Q94N/R155S/R180L/S121R/S35A/S48A/T118I/V127L/V306I/V36M/Y140S/Y91F)
[2] = biological target: HLA-A*0201 (Homo sapiens, UniProt P04439, D140Y/D185E/D98H/E176V/E277Q/G131W/G231S/I119V/I121R/I166T/I218V/L300P/L318F/N151K/N90K/P208A/P217A/Q86G/Q94H/R138H/R169H/T345S)
[3] = biological target: HLA-B*0801 (Homo sapiens, UniProt P01889, A93T/A95T/D138N/E176V/E187T/K202T/Q94N/R180D/S35A/V36M/Y33D/Y91F)
[4] = biological target: HLA-A*0101 (Homo sapiens, UniProt P04439, A114D/A174V/A182V/D101N/D185E/E176A/E190D/L180R/Q94H/R68K/S129P/T187R/V100A/V91M/W191G)
[5] = biological target: HLA-A*0301 (Homo sapiens, UniProt P04439)
[6] = biological target: HLA-B*0702 (Homo sapiens, UniProt P01889)

With AGWLLGNPM [SEQ ID NO: 42] the “ELISA (Absorption-Pass/Fail Control)” value [1] was −0.06.
AIVSLVKSD [SEQ ID NO: 14] was tested, and the “ELISA (Absorption-Pass/Fail Control)” value [2] was 0.43.
AQDILEKKH [SEQ ID NO: 21] was tested, and the “ELISA (Absorption-Pass/Fail Control)” value [2] was 0.15.
In the case of DILEKKHNG [SEQ ID NO: 34], the “ELISA (Absorption-Pass/Fail Control)” value [3] is reported as 0.53.
For DTIMEKNVT [SEQ ID NO: 32], the “ELISA (Absorption-Pass/Fail Control)” value [3] was 0.08.
For FAIVSLVKS [SEQ ID NO: 13], the “ELISA (Absorption-Pass/Fail Control)” value [2] was 0.07.
With FINVPEWSY [SEQ ID NO: 10] the “ELISA (Absorption-Pass/Fail Control)” value [4] was 0.16 and the “ELISA (Absorption-Pass/Fail Control)” value [1] was 0.57.
In the case of GNPMCDEFI [SEQ ID NO: 39], the “ELISA (Absorption-Pass/Fail Control)” value [3] is reported as 0.04.
With HANNSTEQV [SEQ ID NO: 17] the “ELISA (Absorption-Pass/Fail Control)” value [2] was 0.43 and the “ELISA (Absorption-Pass/Fail Control)” value [1] was 0.43.
“HPVGEADYFEY (T cell epitope) [SEQ ID NO: 8, reference compound]” was tested, and the “ELISA (Absorption-Pass/Fail Control)” value [1] was 0.55 and the “efficiency of binding to HLA-B*3501 (in words)” value [1] was “high efficiency”.
With ILEKKHNGK [SEQ ID NO: 28] the “ELISA (Absorption-Pass/Fail Control)” value [5] was −0.01 and the “ELISA (Absorption-Pass/Fail Control)” value [3] was 0.95.
ILRDCSVAG [SEQ ID NO: 30] was tested, and the “ELISA (Absorption-Pass/Fail Control)” value [6] was 0.03.
In the case of “ILRGSVAHK (T cell epitope) [SEQ ID NO: 5, reference compound]”, the “ELISA (Absorption-Pass/Fail Control)” value [5] is reported as 1.19 and the “efficiency of binding to HLA-A*0301 (in words)” value [5] is reported as “high efficiency”.
For IMEKNVTVT [SEQ ID NO: 19], the “ELISA (Absorption-Pass/Fail Control)” value [2] was 0.02.
In the case of IVSLVKSDQ [SEQ ID NO: 15], the “ELISA (Absorption-Pass/Fail Control)” value [2] is reported as 0.04.
With KKHNGKLCD [SEQ ID NO: 41] the “ELISA (Absorption-Pass/Fail Control)” value [1] was −0.05.
With KLCDLDGVK [SEQ ID NO: 22] the “ELISA (Absorption-Pass/Fail Control)” value [2] was 0.20 and the “ELISA (Absorption-Pass/Fail Control)” value [5] was 1.16.
KPLILRDCS [SEQ ID NO: 35] was tested, and the “ELISA (Absorption-Pass/Fail Control)” value [3] was 0.10.
In the case of KSDQICIGY [SEQ ID NO: 9], the “ELISA (Absorption-Pass/Fail Control)” value [4] is reported as 0.47 and the “ELISA (Absorption-Pass/Fail Control)” value [5] is reported as 0.05.
In the case of LFAIVSLVK [SEQ ID NO: 40], the “ELISA (Absorption-Pass/Fail Control)” value [1] is reported as 0.10.
For LGNPMCDEF [SEQ ID NO: 43], the “ELISA (Absorption-Pass/Fail Control)” value [1] was 0.35.
For LILRDCSVA [SEQ ID NO: 23], the “ELISA (Absorption-Pass/Fail Control)” value [2] was 0.57 and the “ELISA (Absorption-Pass/Fail Control)” value [3] was 0.07.
In the case of LLFAIVSLV [SEQ ID NO: 12], the “ELISA (Absorption-Pass/Fail Control)” value [2] is reported as 1.06.
With LVKSDQICI [SEQ ID NO: 29] the “ELISA (Absorption-Pass/Fail Control)” value [6] was −0.06 and the “ELISA (Absorption-Pass/Fail Control)” value [1] was 0.04.
For MEKNVTVTH [SEQ ID NO: 20], the “ELISA (Absorption-Pass/Fail Control)” value [2] was −0.02.
For NVPEWSYIV [SEQ ID NO: 25], the “ELISA (Absorption-Pass/Fail Control)” value [2] was 1.03.
In the case of NVTVTHAQD [SEQ ID NO: 27], the “ELISA (Absorption-Pass/Fail Control)” value [5] is reported as −0.04 and the “ELISA (Absorption-Pass/Fail Control)” value [3] is reported as 0.08.
In the case of PLILRDCSV [SEQ ID NO: 36], the “ELISA (Absorption-Pass/Fail Control)” value [3] is reported as 0.65.
PMCDEFINV [SEQ ID NO: 24] was tested, and the “ELISA (Absorption-Pass/Fail Control)” value [2] was 0.98.
In the case of SLVKSDQIC [SEQ ID NO: 16], the “ELISA (Absorption-Pass/Fail Control)” value [2] is reported as 0.09 and the “ELISA (Absorption-Pass/Fail Control)” value [1] is reported as −0.03.
With TIMEKNVTV [SEQ ID NO: 18] the “ELISA (Absorption-Pass/Fail Control)” value [2] was 0.99, the “ELISA (Absorption-Pass/Fail Control)” value [6] was 0.00 and the “ELISA (Absorption-Pass/Fail Control)” value [3] was 0.80.
For “TPRVTGGGAM (T cell epitope) [SEQ ID NO: 6, reference compound]”, the “ELISA (Absorption-Pass/Fail Control)” value [6] was 0.88 and the “efficiency of binding to HLA-B*0702 (in words)” value [6] was “high efficiency”.
In the case of VAGWLLGNP [SEQ ID NO: 37], the “ELISA (Absorption-Pass/Fail Control)” value [3] is reported as 0.04.
VLLFAIVSL [SEQ ID NO: 11] was tested, and the “ELISA (Absorption-Pass/Fail Control)” value [2] was 0.47.
With VSLVKSDQI [SEQ ID NO: 31] the “ELISA (Absorption-Pass/Fail Control)” value [3] was 0.36.
In the case of VTHAQDILE [SEQ ID NO: 33], the “ELISA (Absorption-Pass/Fail Control)” value [3] is reported as 0.31.
With WLLGNPMCD [SEQ ID NO: 38] the “ELISA (Absorption-Pass/Fail Control)” value [3] was 0.03.
For YIVEKANPV [SEQ ID NO: 26], the “ELISA (Absorption-Pass/Fail Control)” value [2] was 1.02, the “ELISA (Absorption-Pass/Fail Control)” value [6] was 0.11 and the “ELISA (Absorption-Pass/Fail Control)” value [3] was 0.32.
In the case of “YSEHPFTSQY (T cell epitope) [SEQ ID NO: 2, reference compound]”, the “ELISA (Absorption-Pass/Fail Control)” value [4] is reported as 0.58 and the “efficiency of binding to HLA-A*0101 (in words)” value [4] is reported as “high efficiency”.
